Measurements: US8568805B2, “Cognitive function” (Mars, Inc., priority 2002, dated 2013)

Experiments:
[1] = system: WB-F344 rat liver epithelial cells; assay: Gap junctional communication assay (Lucifer Yellow dye transfer); type: cell-based; conditions: for stimulation of GJIC, fold of control: 24 h of exposure
Procedure: WB-F344 rat liver epithelial cells (kindly provided by Dr. Trosko, East Lansing, Mich.) were grown in Dulbecco's modification of Eagle's Medium (DMEM) supplemented with 10% fetal calf serum (FCS), 2 mM L-glutamine and penicillin/streptomycin in 35 mm plastic dishes. Cells were incubated at 37° C. in a humidified atmosphere containing 5% CO2. The confluent cells were incubated with DMEM (without FCS) for 24 h to decrease the basal level of cell-cell communication. (−)-Epicatechin, genistein (Sigma) or TPA were dissolved in DMSO and added to the medium; controls received DMSO only. The final concentration of DMSO in the medium was 0.2%. The epicatechin dimer was prepared as described in Adamson et al. (“HPLC Method for the Quantification of Procyanidins in Cocoa and Chocolate Samples and Correlation to Total Antioxidant Capacity” J. Ag. Food Chem., Vol. 7:10, 4184-4188), the relevant portion of which is hereby incorporated herein by reference.
Cells were treated with (−)-epicatechin (4 to 40 μM) and genistein (40 μM) for 24 and 72 h and GJIC was determined. […] GJIC was measured by microinjection of the fluorescent dye Lucifer Yellow CH (10% in 0.33 M LiCl) into selected cells by means of a micromanipulator and a microinjector system (Eppendorf). One min after injection, the number of fluorescent cells around a single cell which was loaded with the dye were counted. Ten individual cells were injected per dish and means of the number of fluorescent neighboring cells were calculated. Images were taken with a Zeiss axiovert fluorescent microscope coupled to a CCD camera (ORCA II, Hamamatsu).

[2] = system: cultured human umbilical vein endothelial cells; conditions: cited from earlier work
[3] = system: connexin43; assay: Immunofluorescence analysis of the subcellular distribution of connexin43; type: cell-based, rat; conditions: 90 min
Procedure: For immunohistochemistry, WB-F344 cells were grown in complete medium with FCS on coverslips in 35 mm plastic dishes until they reached 90% confluence. The cells were incubated for 90 min with 1, 5, or 10 nM TPA, 40 μM (−)-epicatechin or 40 μM genistein or a combination of 40 μM (−)-epicatechin and (1, 5, 10 nM) TPA or 40 μM genistein and (1, 5, 10 nM) TPA; DMSO (0.2%) was used as a control. After treatment, cells were washed with PBS and fixed with methanol for 10 min at −20° C. After further washing with PBS, non-specific binding sites were blocked with 3% normal goat serum (NGS) in PBS containing 0.3% (v/v) Triton-X-100 for 45 min at room temperature. Cells were incubated with a polyclonal anti-Cx 43 antibody (Zymed); diluted 1:1500 in PBS with 1% (v/v) NGS overnight at 4° C. Cells were washed with PBS, and incubated with an Alexa 546-coupled goat anti-rabbit Ig G (H+L) secondary antibody (Molecular Probes; diluted to 1:800 in PBS) for 45 min at 37° C. After washing and embedding, images were taken with a Zeiss axiovert fluorescent microscope coupled to a CCD camera (ORCA II, Hamamatsu).

[4] = Rattus norvegicus, WB-F344, 40 μM, 72 h, read-out: GJIC % of Control

In the case of `Oc1cc(O)c2c(c1)O[C@H](c1ccc(O)c(O)c1)[C@H](O)C2` [(−)-Epicatechin], the “communication, fold above solvent control” value ([1]; 4 μM (lowest concentration)) is reported as 1.6 fold, the “Number of communicating cells” value ([1]; 4 μM, 72 h) is reported as 18.1 ± 2.2 cells and the “Number of communicating cells” value ([1]; 10 μM, 72 h) is reported as 20.1 ± 6.8 cells. The “GJIC (% control)” value ([1]; 40 μM plus TPA 0.1 nM, 90 min) was 95 ± 14 % control, the “GJIC (% control)” value ([1]; 40 μM plus TPA 1 nM, 90 min) was 95 ± 19 % control and the “GJIC (% control)” value ([1]; 40 μM plus TPA 5 nM, 90 min) was 61 ± 15 % control. For the same compound, the “GJIC (% control)” value ([1]; 40 μM plus TPA 10 nM, 90 min) was 50 ± 16 % control, the “stimulation of GJIC, fold of control” value ([1]; 40 μM) was 1.5 fold and the “Number of communicating cells” value ([1]; 40 μM, 72 h) was 24.2 ± 3.1 cells. The “increase of GJIC, fold above controls” value ([1]; 40 μM, 72 h incubation) was 2.1 fold, the activity at 4 µM ([1]; Rattus norvegicus, WB-F344, 4 μM, 72 h, read-out: GJIC % of Control) was 156 ± 18% and the activity at 10 µM ([1]; Rattus norvegicus, WB-F344, 10 μM, 72 h, read-out: GJIC % of Control) was 173 ± 56%. For the same compound, the activity at 40 µM [1, 4] was 209 ± 26%.

In the case of `O=c1c(-c2ccc(O)cc2)coc2cc(O)cc(O)c12` [Genistein, genistein], the “counteraction of complete loss of GJIC by TPA” value ([1]; 40 μM coincubated with TPA 5 and 10 nM, 90 min) is reported as “partially counteracted”, the “GJIC (% control)” value ([1]; 40 μM plus TPA 1 nM, 90 min) is reported as 90 ± 23 % control and the “GJIC (% control)” value ([1]; 40 μM plus TPA 5 nM, 90 min) is reported as 83 ± 18 % control. The “GJIC (% control)” value ([1]; 40 μM plus TPA 10 nM, 90 min) was 72 ± 17 % control, the “GJIC when applied together with TPA” value ([1]; 40 μM with 1 nM TPA, 90 min) was “restored GJIC to basal levels” and the “stimulation of GJIC, fold of control” value ([1]; 40 μM) was 2.1 fold. The “Number of communicating cells” value ([1]; 40 μM, 72 h) was 35.4 ± 2.4 cells, the “increase of GJIC, fold above controls” value ([1]; 40 μM, 72 h incubation) was 2.9 fold and the activity at 40 µM [1, 4] was 293 ± 20%. The “levels that affect GJIC in cell culture” value [2] was “above 10 μM” and the “TPA effect on Cx43 distribution” value ([3]; 40 μM plus TPA 10 nM) was “attenuated”.

With `CCCCCCCCCCCCCC(=O)O[C@@H]1[C@@H](C)[C@@]2(O)[C@@H](C=C(CO)C[C@]3(O)C(=O)C(C)=C[C@@H]23)[C@H]2C(C)(C)[C@]12OC(C)=O` [TPA] the “effect on GJIC” value ([1]; 0.1 nM TPA, 90 min) was “No effect”, the “GJIC diminished by” value ([1]; 1 nM TPA, 90 min) was “about 40%” and the “GJIC (% control)” value ([1]; TPA 0.1 nM alone, 90 min) was 94 ± 14 % control. For the same compound, the “GJIC (% control)” value ([1]; TPA 1 nM alone, 90 min) was 55 ± 19 % control, the “GJIC (% control)” value ([1]; TPA 5 nM alone, 90 min) was 0 % control and the “GJIC (% control)” value ([1]; TPA 10 nM alone, 90 min) was 0 % control. For the same compound, the intercellular communication ([1]; TPA alone 5 and 10 nM, 90 min) was “completely disrupted”, the “effect on GJIC” value ([1]; TPA, 72 h incubation) was “no effect” and the “signal of membrane-associated Cx43” value ([3]; TPA 10 nM) was “decreased dramatically”.
